This note sets out measurements from US20260327264A1, “PEPTIDE INHIBITORS OF INTERLEUKIN-23 RECEPTOR” (Zealand Pharma A/S, priority 2023, published 2026).

Read-outs that look alike come from different tables or passages of the source. *1 amine or outer side, *2 acyl side, *3 side chain or, on linkers, in order; H or OH if unused. Where a SMILES comes first, the peptide text is derived from it. Bridges are numbered along the chain shown (N, C = ends). [ ]: non-standard residue; d: D form. 2Nal = N[C@@H](Cc1ccc2ccccc2c1)C(=O)O; AEF = NCCOc1ccc(C[C@H](N)C(=O)O)cc1; X1 = O=C(Cc1ccc(CN[*:1])cc1)[*:2]; 3Pal = N[C@@H](Cc1cccnc1)C(=O)O; αMeL = CC(C)C[C@](C)(N)C(=O)O; Dab = NCC[C@H](N)C(=O)O; Sar = CNCC(=O)O

Experiment [1] addresses T1, human IL-23R (Homo sapiens, UniProt Q5VWK5).
T1 construct: Nanoluc luciferase (Nluc); secretion signal encoded by the plasmid (not specified); expressed in transfected cells; crude membranes used in the assay
T1 sequence (Q5VWK5 22-629): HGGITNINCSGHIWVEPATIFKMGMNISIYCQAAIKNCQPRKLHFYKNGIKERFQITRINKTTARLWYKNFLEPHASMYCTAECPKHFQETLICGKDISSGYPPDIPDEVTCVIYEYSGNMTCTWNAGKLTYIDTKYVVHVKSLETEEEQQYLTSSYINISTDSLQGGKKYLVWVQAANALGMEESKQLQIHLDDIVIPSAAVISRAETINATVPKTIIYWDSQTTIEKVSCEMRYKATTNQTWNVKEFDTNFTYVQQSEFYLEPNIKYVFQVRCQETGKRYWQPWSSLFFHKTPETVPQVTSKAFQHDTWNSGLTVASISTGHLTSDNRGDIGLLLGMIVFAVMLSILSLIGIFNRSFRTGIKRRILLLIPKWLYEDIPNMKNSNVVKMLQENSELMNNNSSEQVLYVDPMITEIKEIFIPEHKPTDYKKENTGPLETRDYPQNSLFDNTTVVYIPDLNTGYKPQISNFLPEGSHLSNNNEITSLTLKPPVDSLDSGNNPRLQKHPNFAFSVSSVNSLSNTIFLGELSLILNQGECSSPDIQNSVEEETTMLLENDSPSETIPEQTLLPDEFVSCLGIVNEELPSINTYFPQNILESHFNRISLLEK
Put plainly: Binding assay: displacement of fluorophore (TAMRA)-labelled reference compound from human IL-23R (BRET, Nluc-IL23R fusion protein membranes). As to conditions: for potency of the compound (in words): potency against IL-23R; for Emax: read-out: % displacement (hIL-23R binding). On the technique in general: In BRET a luciferase serves as donor, and the signal depends on an acceptor being close.

In experiment [2] the test system is IL-23 mediated STAT3 signalling (DB cells). Put plainly: Functional inhibition of IL-23 mediated STAT3 signalling (phospho-STAT3 Tyr705) in DB cells. Type of experiment: cell-based, human. Particulars: for hIL-23 (pSTAT3) antagonist % inhibition: Table 3-2, maximal inhibitory response, EC80 of hIL-23. The method, boiled down:
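DB cells preincubated 15 min with inhibitor at 37° C, 5% CO2, then stimulated 90 min with hIL-23 at EC80. Lysate phospho-STAT3 measured by MSD electrochemiluminescence. Signal normalized to IL-23-alone and buffer wells; IC50 and maximal inhibition from concentration–response curves.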

[3] abbreviates: EC80 of hIL-23, read-out: IC50 (pSTAT3).
[4] abbreviates: Table 3-2, EC80 of hIL-23, read-out: hIL-23 (pSTAT3) antagonist IC50.

Regarding `CNC(=O)[C@H](Cc1cccnc1)NC(=O)[C@H](CCN)NC(=O)[C@@H]1CCC(=O)NCc2ccc(cc2)CC(=O)N[C@@H](CO)C(=O)N[C@H]2CCC(=O)NCC[C@H](NC(=O)[C@H](CCC(N)=O)NC(=O)[C@H](Cc3c[nH]c4ccccc34)NC2=O)C(=O)N[C@@H](Cc2ccc(OCCN)cc2)C(=O)N[C@@H](Cc2ccc3ccccc3c2)C(=O)N[C@@](C)(CC(C)C)C(=O)N1` [Compound 8, [4-Aminomethyl-phenylacetyl](1c)*SE(2c)WQ[Dab](2c)[Y(2-aminoethoxy)][2-Nal][2-Me-Leu]E(1c)[Dab][3-(3-Pyridyl)-Ala]-[NHMe]], in experiment [1], the “potency of the compound (in words)” value was “particularly potent” and the Emax amounted to 103%. The 50% inhibitory concentration (IC50) (usually the concentration that gives 50% inhibition) in experiment [2] (setting [3]) amounted to 0.053 nM. The half-inhibitory concentration (IC50) in experiment [2] (setting [4]) worked out at 0.053 nM. In addition, the “hIL-23 (pSTAT3) antagonist % inhibition” value in experiment [2] is 101%.
For `CC(C)C[C@]1(C)NC(=O)[C@H](Cc2ccc3ccccc3c2)NC(=O)[C@H](Cc2ccc(OCCN)cc2)NC(=O)[C@@H]2CCNC(=O)CC[C@H](NC(=O)[C@H](CO)NC(=O)Cc3ccc(cc3)CNC(=O)CC[C@@H](C(=O)N[C@@H](CCN)C(=O)N[C@@H](Cc3cccnc3)C(=O)N(C)CC(N)=O)NC1=O)C(=O)N[C@@H](Cc1c[nH]c3ccccc13)C(=O)N[C@@H](CCC(N)=O)C(=O)N2` [Compound 9, [4-Aminomethyl-phenylacetyl](1c)*SE(2c)WQ[Dab](2c)[Y(2-aminoethoxy)][2-Nal][2-Me-Leu]E(1c)[Dab][3-(3-Pyridyl)-Ala][Sar]-[NH2]] ([X1]SEWQ[Dab][AEF][2Nal][αMeL]E[Dab][3Pal][Sar]-NH2; lactam 3-6, N-10), in experiment [1], the “potency of the compound (in words)” value is on record as “particularly potent” and the Emax is 100%. For the same compound, in experiment [2] (setting [3]), the IC50 worked out at 0.025 nM. In experiment [2] (setting [4]), the IC50 is 0.025 nM. In addition, in experiment [2], the “hIL-23 (pSTAT3) antagonist % inhibition” value turned out to be 97%.
With `CNC(=O)[C@H](Cc1cccnc1)NC(=O)[C@H](CCN)NC(=O)[C@@H]1CCC(=O)NCc2ccc(cc2)CC(=O)N[C@@H](C)C(=O)N[C@H]2CCC(=O)NCC[C@H](NC(=O)[C@H](CCC(N)=O)NC(=O)[C@H](Cc3c[nH]c4ccccc34)NC2=O)C(=O)N[C@@H](Cc2ccc(OCCN)cc2)C(=O)N[C@@H](Cc2ccc3ccccc3c2)C(=O)N[C@@](C)(CC(C)C)C(=O)N1` [Compound 20, [4-Aminomethyl-phenylacetyl](1c)*AE(2c)WQ[Dab](2c)[Y(2-aminoethoxy)][2-Nal][2-Me-Leu]E(1c)[Dab][3-(3-Pyridyl)-Ala]-[NHMe]], in experiment [1], the Emax was 97%. Further, the concentration for half-maximal inhibition (IC50) in experiment [2] (setting [4]) stood at 0.026 nM. Moreover, in experiment [2], the “hIL-23 (pSTAT3) antagonist % inhibition” value worked out at 101%.
With `CNC(=O)CC[C@@H]1NC(=O)[C@H](Cc2c[nH]c3ccccc23)NC(=O)[C@@H]2CCC(=O)NCC[C@H](NC1=O)C(=O)N[C@@H](Cc1ccc(OCCN)cc1)C(=O)N[C@@H](Cc1ccc3ccccc3c1)C(=O)N[C@@](C)(CC(C)C)C(=O)N[C@H](C(=O)N[C@@H](CCN)C(=O)N[C@@H](Cc1cccnc1)C(=O)NC)CCC(=O)NCc1ccc(cc1)CC(=O)N[C@@H](CO)C(=O)N2` [Compound 29, [4-Aminomethyl-phenylacetyl](1c)*SE(2c)W[Q(Me)][Dab](2c)[Y(2-aminoethoxy)][2-Nal][2-Me-Leu]E(1c)[Dab][3-(3-Pyridyl)-Ala]-[NHMe]] ([X1]SEWE(NHMe)[Dab][AEF][2Nal][αMeL]E[Dab][3Pal]-NHMe; lactam 3-6, N-10), the IC50 was determined as 0.011 nM in experiment [1] and 0.042 nM in experiment [2] (setting [4]). For the same compound, in experiment [1], the Emax is 96%. For the same compound, in experiment [2], the “hIL-23 (pSTAT3) antagonist % inhibition” value turned out to be 99%.
As for `CNC(=O)[C@H](Cc1cccnc1)NC(=O)[C@H](CCN)NC(=O)[C@@H]1CCC(=O)NCc2ccc(cc2)CC(=O)N[C@@H](C)C(=O)N[C@H]2CCC(=O)NCC[C@H](NC(=O)[C@H](CCC(N)=O)NC(=O)[C@H](Cc3c[nH]c4ccccc34)NC2=O)C(=O)N[C@@H](Cc2c[nH]c3ncccc23)C(=O)N[C@@H](Cc2ccc3ccccc3c2)C(=O)NC(C)(C)C(=O)N1` [Compound 43, [4-Aminomethyl-phenylacetyl](1c)*AE(2c)WQ[Dab](2c)[7-AzaTrp][2-Nal][Aib]E(1c)[Dab][3-(3-Pyridyl)-Ala]-[NHMe]], the Emax in experiment [1] worked out at 101%. Moreover, the IC50 in experiment [2] (setting [4]) came out at 0.54 nM. Besides, the “hIL-23 (pSTAT3) antagonist % inhibition” value in experiment [2] was found to be 98%.
